We go through 10 molecules from ChEMBL document CHEMBL3046194, “Synthesis and antitumor activity of novel 4-aminoquinoline derivatives” (Med Chem Res, 2013).

Experiment [1] has as its system HCT-116. Put plainly: Antitumor activity against Homo sapiens (human) HCT116 cells assessed as inhibition of cell viability after 72 hr by MTT assay. The format is functional, cell-based. As to conditions: HCT-116, 72 h. (In general: Formazan colour is commonly taken as a measure of viable cells.)
A further experiment deals with HepG2. In words: Antitumor activity against Homo sapiens (human) HepG2 cells assessed as inhibition of cell viability after 72 hr by MTT assay. The experiment is classed as functional, cell-based. As to conditions: HepG2, 72 h.
For the next experiment, the system named is HEK293. In words: Cytotoxicity against Homo sapiens (human) HEK293 cells assessed as inhibition of cell viability after 72 hr by MTT assay. The following applies: HEK293, 72 h. The experiment is classed as cell-based.
A short description of experiment [2]: Antitumor activity against Homo sapiens (human) LN229 cells assessed as inhibition of cell viability after 72 hr by MTT assay. The following applies: LN-229, 72 h. The experiment is classed as functional, cell-based.
For the next experiment, the system named is DU-145. Put plainly: Antitumor activity against Homo sapiens (human) DU145 cells assessed as inhibition of cell viability after 72 hr by MTT assay. The following applies: DU-145, 72 h. The experiment is classed as functional, cell-based.
For a further experiment, the system named is A549. Put plainly: Antitumor activity against Homo sapiens (human) A549 cells assessed as inhibition of cell viability after 72 hr by MTT assay. The format is functional, cell-based. The following applies: A549, 72 h.
Experiment [3] deals with HCT-116. In words: Decrease in VEGF protein expression in Homo sapiens (human) HCT116 cells at 2.5 to 10 uM after 48 hr by westerrn blot analysis. The experiment is classed as functional, cell-based.

The source made the active and inactive calls. The rule behind the calls is not given here. Bounds are passed on as bounds.

A word on the IC50: it is the concentration at which inhibition is half-maximal.

On to `COc1cc(OC)c2c(N3CCOCC3)cc(-c3ccccc3)nc2c1`, for which the IC50 in the experiment on HCT-116 [1] was 28.1 µM; in the experiment on HepG2 it was more than 100 µM; in the experiment with HEK293 it was more than 100 µM; in experiment [2], more than 100 µM; in the experiment with DU-145 it was more than 100 µM; in the experiment on A549, more than 100 µM.
`CCCNc1cc(-c2ccccc2)nc2cc(OC)cc(OC)c12`: the IC50 in the experiment with HCT-116 [1] was found to be 0.97 µM; in the experiment on HepG2 it was 5.21 µM; in the experiment on HEK293 it was 2 µM; in experiment [2], 1.82 µM; with DU-145, 9.77 µM; in the experiment with A549 it was 13.1 µM. Also, the inhibition entry in the experiment on HCT-116 [3] was “Active”.
On to `COc1cc(OC)c2c(N3CCN(C)CC3)cc(-c3ccccc3)nc2c1`, for which the 50% inhibitory concentration (IC50) with HCT-116 [1] was 7.43 µM; in the experiment with HepG2, 22.6 µM; with HEK293, 3.66 µM; in experiment [2], 1.75 µM; with DU-145, 16.4 µM; in the experiment with A549 it was more than 100 µM.
Turning to `CCCCNc1cc(-c2ccccc2)nc2cc(OC)cc(OC)c12`, the IC50 with HCT-116 [1] is 3.05 µM; with HepG2 it was 4.46 µM; with HEK293 it was 3.23 µM; in experiment [2], 3.92 µM; in the experiment with DU-145, 4.63 µM; with A549 it was 19.6 µM.
Consider `COc1cc(OC)c2c(NCc3ccccc3)cc(-c3ccccc3)nc2c1`, for which the IC50 in the experiment on HCT-116 [1] stood at 12 µM; with HepG2, 10.9 µM; in experiment [2], 7.15 µM; with DU-145, 10.1 µM; in the experiment with A549, 12.8 µM.
`COc1cc(OC)c2c(NC3CCCCC3)cc(-c3ccccc3)nc2c1`: the IC50 in the experiment on HCT-116 [1] is 3.82 µM; in the experiment with HepG2, 3.16 µM; in experiment [2] it was 6.08 µM; with DU-145, 5.47 µM; in the experiment with A549, 6.59 µM.
For the molecule `O=c1[nH]cc(F)c(=O)[nH]1` [FLUOROURACIL], the IC50 with HCT-116 [1] is 1.93 µM; in the experiment with HepG2 it was 19.2 µM; in the experiment with DU-145 it was 2.95 µM; in the experiment on A549, more than 100 µM.
Regarding `COc1cc(OC)c2c(N3CCCCC3)cc(-c3ccccc3)nc2c1`, the IC50 was 32 µM in the experiment on HCT-116 [1]; more than 100 µM in the experiment with HepG2; 68.2 µM in the experiment on HEK293; 66 µM in experiment [2]; more than 100 µM with DU-145; more than 100 µM with A549.
Turning to `COc1cc(OC)c2c(Nc3ccccc3)cc(-c3ccccc3)nc2c1`, the IC50 in the experiment with HCT-116 [1] is 4.28 µM; in the experiment on HepG2, 36.4 µM; in the experiment on HEK293 it was 13.2 µM; in experiment [2], 5.9 µM; in the experiment with DU-145, 22.2 µM; in the experiment with A549 it was more than 100 µM.
Regarding `COc1cc(OC)c2c(-n3ccnc3)cc(-c3ccccc3)nc2c1`, the IC50 with HCT-116 [1] is 42.4 µM; in the experiment on HepG2 it was 58.6 µM; in experiment [2], 55.3 µM; in the experiment on DU-145 it was more than 100 µM; with A549, more than 100 µM.
